In US9540343B2 (Gilead Sciences, Inc., priority 2011, dated 2017):

How the values were obtained:
HIV-IIIb = assay: Test A: Antiviral assay in MT4 cells; assay type: cell-based, HIV-1; conditions: Human immunodeficiency virus 1, IIIB, MT4, 120 h, read-out: % inhibition at 2 μM, percent inhibition of virus-induced cell killing, from dose response curve at 2 uM drug; MT-4 cells infected with HIV-IIIb, 5 days, CellTiter-Glo
in vitro = conditions: human, uninfected MT-4 cells, CC50 (nM), same protocol as Test A, CellTiter-Glo
Procedure: For the antiviral assay, 40 μL of 1× test concentration of 3-fold serially diluted compound in culture medium with 10% FBS was added to each well of a 384-well plate (10 concentrations) in quadruplicate. MT-4 cells were next mixed with HIV-IIIb at an m.o.i of 0.003 for 1 hour, after which time 35 μL of virus/cell mixture (2000 cells) was immediately added to each well containing 40 μL of diluted compound. The plates were then incubated at 37° C. for 5 days. After 5 days of incubation, 25 μl of 2× concentrated CellTiter-Glo™ Reagent (catalog #G7571, Promega Biosciences, Inc., Madison, Wis.) was added to each well containing MT-4 cells. Cell lysis was carried out by incubating at room temperature for 10 min and then chemiluminescence was read.
Test B: Cytotoxicity Assay
Compound cytotoxicity and the corresponding CC50 values was determined using the same protocol as described in the antiviral assay (Test A) except that uninfected cells were used.

Compound | inhibition at 2 µM (HIV-IIIb) [%] | CC50 at 5 days (in vitro) [nM]
N#Cc1nn(CC(=O)N[C@@H](Cc2cc(F)cc(F)c2)c2ncccc2-c2ccc(F)c(C(N)=O)c2)c2c1CCC2 [Example 211C, (S)-5-(2-(1-(2-(3-cyano-5,6-dihydrocyclopenta[c]pyrazol-1(4H)-yl)acetamido)-2-(3,5-difluorophenyl)ethyl)pyridin-3-yl)-2-fluorobenzamide] | 83 | 36100
CC12CCC(c3c(C(F)(F)F)nn(CC(=O)N[C@@H](Cc4cc(F)cc(F)c4)c4ncccc4-c4ccc(F)c(C(N)=O)c4)c31)C2(C)C (stereo partly drawn) [Example 74D, (S)-5-(2-(2-(3,5-difluorophenyl)-1-(2-(L-4,5,6,7-Tetrahydro-3-trifluoromethyl-7,8,8-trimethyl-1H-4,7-(methano)indazol-1-yl)acetamido)ethyl)pyridin-3-yl)-2-fluorobenzamide] | 4 | 8470
O=C(Cn1nc(C(F)F)c2c1C(F)(F)C1CC21)N[C@@H](Cc1cc(F)cc(F)c1)c1ncncc1-c1cccc2[nH]cnc12 (stereo partly drawn) [Example 127C, N—((S)-1-(5-(1H-benzo[d]imidazol-4-yl)pyrimidin-4-yl)-2-(3,5-difluorophenyl)ethyl)-2-(3-(difluoromethyl)-5,5-difluoro-3b,4,4a,5-tetrahydro-1H-cyclopropa[3,4]cyclopenta[1,2-c]pyrazol-1-yl)acetamide] | 97 | 31900
Cc1cc(=O)n(CC(=O)N[C@@H](Cc2cc(F)cc(F)c2)c2ncccc2-c2cccc(S(N)(=O)=O)c2)c2ccccc12 [Example 345, (S)—N-(2-(3,5-difluorophenyl)-1-(3-(3-sulfamoylphenyl)pyridin-2-yl)ethyl)-2-(4-methyl-2-oxoquinolin-1(2H)-yl)acetamide] | 21 | 12400
CC1(O)CCCc2c(C(F)(F)F)nn(CC(=O)N[C@@H](Cc3cc(F)cc(F)c3)c3ncccc3-c3ccc(F)c(C(N)=O)c3)c21 (stereo partly drawn) [Example 356, 5-(2-((1S)-2-(3,5-difluorophenyl)-1-(2-(7-hydroxy-7-methyl-3-(trifluoromethyl)-4,5,6,7-tetrahydro-1H-indazol-1-yl)acetamido)ethyl)pyridin-3-yl)-2-fluorobenzamide] | 76 | 20600
COc1ccc2[nH]cc(CC(=O)NC(Cc3cc(F)cc(F)c3)c3nccnc3-c3ccc(Cl)cc3)c2n1 (stereo not shown) [Example 454, N-(1-(3-(4-chlorophenyl)pyrazin-2-yl)-2-(3,5-difluorophenyl)ethyl)-2-(5-methoxy-1H-pyrrolo[3,2-b]pyridin-3-yl)acetamide] | 1 | 11100
CS(=O)(=O)c1ccc(-c2cccnc2[C@H](Cc2cc(F)cc(F)c2)NC(=O)Cc2c[nH]c3ccc(F)cc23)cc1 [Example 413, (S)—N-(2-(3,5-difluorophenyl)-1-(3-(4-(methylsulfonyl)phenyl)pyridin-2-yl)ethyl)-2-(5-fluoro-1H-indol-3-yl)acetamide] | 61 | 14500
NC(=O)c1cccc(-c2cncnc2[C@@H](Cc2cc(F)cc(F)c2)NC(=O)Cc2c[nH]c3ccc(O)cc23)c1 [Example 313, (R)-3-(4-(2-(3,5-difluorophenyl)-1-(2-(5-hydroxy-1H-indol-3-yl)acetamido)ethyl)pyrimidin-5-yl)benzamide] | 14 | > 53200
Cn1cc(-c2cccnc2[C@H](Cc2cc(F)cc(F)c2)NC(=O)Cc2c[nH]c3ccc(F)cc23)cn1 [Example 440, (S)—N-(2-(3,5-difluorophenyl)-1-(3-(1-methyl-1H-pyrazol-4-yl)pyridin-2-yl)ethyl)-2-(5-fluoro-1H-indol-3-yl)acetamide] | 82 | 21700
NC(=O)c1cc(-c2cccnc2[C@H](Cc2cc(F)cc(F)c2)NC(=O)CC2C(=O)Nc3ccc(F)cc32)ccc1F (stereo partly drawn) [Example 267, 5-(2-((1S)-2-(3,5-difluorophenyl)-1-(2-(5-fluoro-2-oxoindolin-3-yl)acetamido)ethyl)pyridin-3-yl)-2-fluorobenzamide] | 5 | > 52900
O=C(Cc1c[nH]c2ccc(F)cc12)N[C@@H](Cc1cc(F)cc(F)c1)c1ncccc1-c1ccc(Cl)cc1 [Example 33, (S)—N-(1-(3-(4-chlorophenyl)pyridin-2-yl)-2-(3,5-difluorophenyl)ethyl)-2-(5-fluoro-1H-indol-3-yl)acetamide] | 75 | 9750
Cc1c(C(F)F)nn(CC(=O)N[C@@H](Cc2cc(F)cc(F)c2)c2ncccc2-c2ccc(F)c(C(N)=O)c2)c1C(F)F [Example 493, (S)-5-(2-(1-(2-(3,5-bis(difluoromethyl)-4-methyl-1H-pyrazol-1-yl)acetamido)-2-(3,5-difluorophenyl)ethyl)pyridin-3-yl)-2-fluorobenzamide] | 48 | 33900
O=C1Cc2cc(-c3cccnc3[C@H](Cc3cc(F)cc(F)c3)NC(=O)Cn3nc(C(F)F)c4c3C(F)(F)CCC4(F)F)ccc2N1 [Example 548D, (S)-2-(3-(difluoromethyl)-4,4,7,7-tetrafluoro-4,5,6,7-tetrahydro-1H-indazol-1-yl)-N-(2-(3,5-difluorophenyl)-1-(3-(2-oxoindolin-5-yl)pyridin-2-yl)ethyl)acetamide] | 54 | 10100
NC(=O)c1cc(-c2cccnc2[C@H](Cc2cc(F)cc(F)c2)NC(=O)Cn2nc(C(F)(F)F)c3c2CCC3O)ccc1F (stereo partly drawn) [Example 525, 5-(2-((1S)-2-(3,5-difluorophenyl)-1-(2-(4-hydroxy-3-(trifluoromethyl)-5,6-dihydrocyclopenta[c]pyrazol-1(4H)-yl)acetamido)ethyl)pyridin-3-yl)-2-fluorobenzamide] | 83 | > 53200
C=Cc1c(C(F)F)nn(CC(=O)N[C@@H](Cc2cc(F)cc(F)c2)c2ncccc2-c2ccc(F)c(C(N)=O)c2)c1C(F)F [Example 553, (S)-5-(2-(1-(2-(3,5-bis(difluoromethyl)-4-vinyl-1H-pyrazol-1-yl)acetamido)-2-(3,5-difluorophenyl)ethyl)pyridin-3-yl)-2-fluorobenzamide] | 11 | 23800
CCc1c(C2CC2)c(C(F)(F)F)nn1CC(=O)N[C@@H](Cc1cc(F)cc(F)c1)c1ncccc1-c1ccc(F)c(C(N)=O)c1 [Example 343, (S)-5-(2-(1-(2-(4-cyclopropyl-5-ethyl-3-(trifluoromethyl)-1H-pyrazol-1-yl)acetamido)-2-(3,5-difluorophenyl)ethyl)pyridin-3-yl)-2-fluorobenzamide] | 62 | 15500
O=C(Cc1c[nH]c2ccc(O)cc12)N[C@@H](Cc1cc(F)cc(F)c1)c1ncccc1-c1ccccc1 [Example 402, (S)—N-(2-(3,5-difluorophenyl)-1-(3-phenylpyridin-2-yl)ethyl)-2-(5-hydroxy-1H-indol-3-yl)acetamide] | 92 | 24800
COc1ccc(-c2cccnc2[C@H](Cc2cc(F)cc(F)c2)NC(=O)Cn2nc(C(F)(F)F)c3c2CCCC3)cc1 [Example 30, (S)—N-(2-(3,5-difluorophenyl)-1-(3-(4-methoxyphenyl)pyridin-2-yl)ethyl)-2-(3-(trifluoromethyl)-4,5,6,7-tetrahydro-1H-indazol-1-yl)acetamide] | 76 | 11900
CC(C)(C)c1cc(C(F)(F)F)n(CC(=O)N[C@@H](Cc2cc(F)cc(F)c2)c2ncccc2-c2ccc(F)c(C(N)=O)c2)n1 [Example 238E, (S)-5-(2-(1-(2-(3-(tert-butyl)-5-(trifluoromethyl)-1H-pyrazol-1-yl)acetamido)-2-(3,5-difluorophenyl)ethyl)pyridin-3-yl)-2-fluorobenzamide] | 12 | 17000
CC(C)(C)OC(=O)NCc1ccc2[nH]cc(CC(=O)N[C@@H](Cc3cc(F)cc(F)c3)c3ncccc3-c3ccc(Cl)cc3)c2c1 [Example 557, (S)-tert-butyl (3-(2-(1-(3-(4-chlorophenyl)pyridin-2-yl)-2-(3,5-difluorophenyl)ethylamino)-2-oxoethyl)-1H-indol-5-yl)methylcarbamate] | 73 | 7860
NCc1ccc2[nH]cc(CC(=O)N[C@@H](Cc3cc(F)cc(F)c3)c3ncccc3-c3ccc(Cl)cc3)c2c1 [Example 491F, (S)-2-(5-(aminomethyl)-1H-indol-3-yl)-N-(1-(3-(4-chlorophenyl)pyridin-2-yl)-2-(3,5-difluorophenyl)ethyl)acetamide] | 18 | 7850
NC(=O)c1cc(-c2cccnc2[C@H](Cc2cc(F)cc(F)c2)NC(=O)Cn2nc(C(F)(F)F)cc2C(F)(F)F)ccc1F [Example 542, (S)-5-(2-(1-(2-(3,5-bis(trifluoromethyl)-1H-pyrazol-1-yl)acetamido)-2-(3,5-difluorophenyl)ethyl)pyridin-3-yl)-2-fluorobenzamide] | 1 | 33600
O=C(Cn1nc(C(F)(F)F)c2c1CCCC2)N[C@@H](Cc1cc(F)cc(F)c1)c1ncccc1-c1cccc(C(=O)N2CCOCC2)c1 [Example 424, (S)—N-(2-(3,5-difluorophenyl)-1-(3-(3-(morpholine-4-carbonyl)phenyl)pyridin-2-yl)ethyl)-2-(3-(trifluoromethyl)-4,5,6,7-tetrahydro-1H-indazol-1-yl)acetamide] | 78 | 14200
